What was measured:
[1] = target: T1, human PR (progesterone receptor) (Homo sapiens, UniProt P06401); assay: PR competition binding assay (HEK293 cell lysate); conditions: 0.29 nM 3H-methyltrienolone, 293-PR lysate
T1 construct: expressed in transfected cells; host or cells: HEK293
T1 sequence (P06401 1-933): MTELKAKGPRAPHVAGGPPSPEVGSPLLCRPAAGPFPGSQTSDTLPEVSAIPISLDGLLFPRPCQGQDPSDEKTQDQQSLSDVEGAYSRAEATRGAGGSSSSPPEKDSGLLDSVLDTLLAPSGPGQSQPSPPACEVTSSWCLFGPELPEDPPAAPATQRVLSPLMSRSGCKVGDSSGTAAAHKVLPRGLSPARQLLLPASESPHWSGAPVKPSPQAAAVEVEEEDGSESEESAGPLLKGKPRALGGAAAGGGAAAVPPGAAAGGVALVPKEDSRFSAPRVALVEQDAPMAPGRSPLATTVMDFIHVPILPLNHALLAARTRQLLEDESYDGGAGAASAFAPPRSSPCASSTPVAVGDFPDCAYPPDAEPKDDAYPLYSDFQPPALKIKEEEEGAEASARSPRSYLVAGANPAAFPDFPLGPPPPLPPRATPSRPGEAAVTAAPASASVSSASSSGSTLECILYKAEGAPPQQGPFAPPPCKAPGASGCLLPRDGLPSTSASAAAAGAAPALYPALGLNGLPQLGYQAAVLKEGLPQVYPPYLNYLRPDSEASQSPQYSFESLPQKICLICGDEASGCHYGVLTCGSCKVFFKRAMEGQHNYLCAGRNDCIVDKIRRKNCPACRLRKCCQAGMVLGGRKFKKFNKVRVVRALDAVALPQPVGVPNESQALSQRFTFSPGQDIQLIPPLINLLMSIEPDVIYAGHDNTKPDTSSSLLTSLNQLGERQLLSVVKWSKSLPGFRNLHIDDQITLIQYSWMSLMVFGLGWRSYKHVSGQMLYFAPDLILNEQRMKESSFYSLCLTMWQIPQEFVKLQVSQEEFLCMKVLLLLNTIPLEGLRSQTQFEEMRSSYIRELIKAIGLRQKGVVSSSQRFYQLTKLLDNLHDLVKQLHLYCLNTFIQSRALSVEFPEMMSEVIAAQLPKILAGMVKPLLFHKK
Protocol: (§1) Cell lysates from HEK293 cells overexpressing human GR (glucocorticoid receptor), AR (androgen receptor), MR (mineralocorticoid receptor) or PR (progesterone receptor) are used for competition binding assays to determine Ki values for compounds of interest. Briefly, competition binding assays are run in a buffer containing 20 mM HEPES, pH 7.6, 0.2 mM EDTA, 75 mM NaCl, 1.5 mM MgCl2, 20% glycerol, 20 mM sodium molybdate, 0.2 mM DTT, 20 ug/ml aprotinin, and 20 ug/ml leupeptin, using either 0.3 nM ^3H-dexamethasone for GR binding, 0.36 nM ^3H-methyltrienolone for AR binding, 0.25 nM ^3H-aldosterone for MR binding, or 0.29 nM ^3H-methyltrienolone for PR binding, and either 20 ug 293-GR lysate, 22 ug 293-AR lysate, 20 ug 293-MR lysate or 40 ug 293-PR lysate per well. Competing compounds are added at various concentrations in half-log increments. Non-specific binding is determined in the presence of 500 nM dexamethasone for GR binding, 500 nM aldosterone for MR binding, or 500 nM methyltrienolone for AR and PR binding. The binding reaction (140 μl) is incubated overnight at 4° C., then 70 μl of cold charcoal-dextran buffer (containing per 50 ml of assay buffer, 0.75 g of charcoal and 0.25 g of dextran) is added to each reaction. Plates are mixed 8 minutes on an orbital shaker at 4° C. Plates are then centrifuged at 3,000 rpm at 4° C. for 10 minutes. An aliquot of 120 μl of the mixture is transferred to another 96-well plate and 175 μl of Wallac Optiphase “Hisafe 3” scintillation fluid is added to each well. Plates are sealed and shaken vigorously on an orbital shaker. After an incubation of 2 hrs, plates are read in a Wallac Microbeta counter. […] The Kd for ^3H-dexamethasone for GR binding, ^3H-methyltrienolone for AR binding, ^3H-aldosterone for MR binding, or ^3H-methyltrienolone for PR binding, is determined by saturation binding. The IC50 values for compounds are converted to Ki using Cheng-Prusoff equation and the Kd determined by saturation binding assay.
More preferably the compounds of the present invention have PR binding value K; of <10 nM.

[2] = target: T2, human MR (mineralocorticoid receptor) (Homo sapiens, UniProt P08235); assay: MR competition binding assay (HEK293 cell lysate); conditions: 0.25 nM 3H-aldosterone, 293-MR lysate
T2 construct: expressed in transfected cells; host or cells: HEK293
T2 sequence (P08235 1-984): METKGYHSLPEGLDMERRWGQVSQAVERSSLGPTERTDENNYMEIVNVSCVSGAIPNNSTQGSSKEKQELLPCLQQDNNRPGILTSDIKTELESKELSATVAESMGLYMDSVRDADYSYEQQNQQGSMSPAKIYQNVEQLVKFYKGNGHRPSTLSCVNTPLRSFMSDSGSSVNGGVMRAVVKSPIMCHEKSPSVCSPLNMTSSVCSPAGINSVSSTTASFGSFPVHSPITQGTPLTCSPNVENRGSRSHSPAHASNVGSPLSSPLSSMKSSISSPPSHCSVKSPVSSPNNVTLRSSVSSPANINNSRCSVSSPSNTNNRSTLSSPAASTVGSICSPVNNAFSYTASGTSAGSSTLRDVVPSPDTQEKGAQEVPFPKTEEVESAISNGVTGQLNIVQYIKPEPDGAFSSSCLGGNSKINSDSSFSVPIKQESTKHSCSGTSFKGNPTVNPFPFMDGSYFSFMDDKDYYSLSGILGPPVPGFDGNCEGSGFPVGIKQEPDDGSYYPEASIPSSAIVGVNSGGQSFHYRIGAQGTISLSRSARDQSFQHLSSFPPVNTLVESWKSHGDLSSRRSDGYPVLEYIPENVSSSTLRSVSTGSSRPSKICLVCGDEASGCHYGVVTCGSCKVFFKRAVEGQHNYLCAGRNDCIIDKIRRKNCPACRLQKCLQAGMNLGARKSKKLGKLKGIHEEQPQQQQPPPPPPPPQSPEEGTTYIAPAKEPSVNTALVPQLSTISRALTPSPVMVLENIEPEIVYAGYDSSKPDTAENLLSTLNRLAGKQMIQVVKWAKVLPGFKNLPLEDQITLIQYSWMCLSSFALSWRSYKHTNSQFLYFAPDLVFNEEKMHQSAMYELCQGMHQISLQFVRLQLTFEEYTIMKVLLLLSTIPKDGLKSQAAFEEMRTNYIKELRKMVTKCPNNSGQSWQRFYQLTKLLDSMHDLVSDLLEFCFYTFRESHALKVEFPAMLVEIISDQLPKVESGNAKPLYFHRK
Protocol: as §1

Q: For CC(C)Cn1cc(-c2ccc(C#N)cc2)c2ccc(NS(C)(=O)=O)cc21 [Example 29, N-[3-(4-Cyano-phenyl)-1-isobutyl-1H-indol-6-yl]-methanesulfonamide], which Ki [1] is on record?
A: < 50 nM

Q: What about the Ki [2] of the same compound?
A: 500 to 1000 nM

Q: Which results are given for CC(C)n1cc(-c2ccc(C(N)=O)cc2)c2ccc(NS(C)(=O)=O)cc21 [Example 87, 4-(1-Isopropyl-6-methanesulfonylamino-1H-indol-3-yl)-benzamide]?
A: Ki [1]: < 50 nM; Ki [2]: > 1000 nM

Q: How did the Ki [1] turn out when CC(C)n1cc(-c2ccc(C#N)cc2)c2ccc(NS(C)(=O)=O)cc21 [Example 28, N-[3-(4-Cyano-phenyl)-1-isopropyl-1H-indol-6-yl]-methanesulfonamide] was run?
A: < 50 nM

Q: And the Ki [2]?
A: > 1000 nM

Q: With CC(C)n1cc(-c2ccc(C#N)cc2)c2ccc(NS(=O)(=O)N3CCOCC3)cc21 [Example 100, Morpholine-4-sulfonic acid [3-(4-cyano-phenyl)-1-isopropyl-1H-indol-6-yl]-amide] as the compound, how does the Ki [1] read?
A: 50 to 100 nM

Q: What about the Ki [2] of the same compound?
A: > 1000 nM

Q: What does the source list for CS(=O)(=O)Nc1ccc2c(-c3ccc(C#N)cc3)cn(CC3CCCCC3)c2c1 [Example 77, N-[3-(4-Cyano-phenyl)-1-cyclohexylmethyl-1H-indol-6-yl]-methanesulfonamide]?
A: Ki [1]: < 50 nM; Ki [2]: 100 to 500 nM

Q: Which Ki [1] does the source give for CC(C)n1cc(-c2ccccc2)c2ccc(NS(C)(=O)=O)cc21 [Example 85, N-(1-Isopropyl-3-phenyl-1H-indol-6-yl)-methanesulfonamide] here?
A: < 50 nM

Q: And the Ki [2]?
A: 500 to 1000 nM

Q: COc1ccc(-c2cn(C(C)C)c3cc(NS(C)(=O)=O)ccc23)cc1C [Example 86, N-[1-Isopropyl-3-(4-methoxy-3-methyl-phenyl)-1H-indol-6-yl]-methanesulfonamide] was tested. Which Ki [1] did it give?
A: < 50 nM

Q: And the Ki [2]?
A: > 1000 nM

Q: How did the Ki [1] turn out when CC(C)n1cc(-c2ccc(C#N)s2)c2ccc(NS(C)(=O)=O)cc21 [Example 43, N-[3-(5-Cyano-thiophen-2-yl)-1-isopropyl-1H-indol-6-yl]-methanesulfonamide] was run?
A: < 50 nM

Q: And the Ki [2]?
A: 100 to 500 nM

Q: CC(C)n1cc(-c2ccc3c(c2)COC3=O)c2ccc(NS(C)(=O)=O)cc21 [Example 97, N-[1-Isopropyl-3-(1-oxo-1,3-dihydro-isobenzofuran-5-yl)-1H-indol-6-yl]-methanesulfonamide] was tested. Which Ki [1] did it give?
A: < 50 nM

Q: What about the Ki [2] of the same compound?
A: > 1000 nM

Q: How did the Ki [1] turn out when Cn1cc(-c2ccc([N+](=O)[O-])cc2)c2ccc(NS(C)(=O)=O)cc21 [Example 30, N-[1-Methyl-3-(4-nitro-phenyl)-1H-indol-6-yl]-methanesulfonamide] was run?
A: < 50 nM

Q: What about the Ki [2] of the same compound?
A: > 1000 nM

Q: CSc1ccc(-c2cn(C(C)C)c3cc(NS(C)(=O)=O)ccc23)cc1 [Example 83, N-[1-Isopropyl-3-(4-methylsulfanyl-phenyl)-1H-indol-6-yl]-methanesulfonamide] was tested. Which Ki [1] did it give?
A: < 50 nM

Q: And the Ki [2]?
A: 500 to 1000 nM

Q: How did the Ki [1] turn out when CC(C)n1cc(-c2ccc3oc(=O)ccc3c2)c2ccc(NS(C)(=O)=O)cc21 [Example 96, N-[1-Isopropyl-3-(2-oxo-2H-chromen-6-yl)-1H-indol-6-yl]-methanesulfonamide] was run?
A: < 50 nM

Q: And the Ki [2]?
A: > 1000 nM

Q: Which results are given for Cn1cc(-c2ccc(C#N)cc2)c2ccc(NS(=O)(=O)c3cccs3)cc21 [Example 32, Thiophene-2-sulfonic acid [3-(4-cyano-phenyl)-1-methyl-1H-indol-6-yl]-amide]?
A: Ki [1]: < 50 nM; Ki [2]: > 1000 nM

Q: For CC(C)n1cc(-c2ccc(Cl)cc2)c2ccc(NS(C)(=O)=O)cc21 [Example 36, N-[3-(4-Chloro-phenyl)-1-isopropyl-1H-indol-6-yl]-methanesulfonamide], which Ki [1] is on record?
A: < 50 nM

Q: And the Ki [2]?
A: > 1000 nM

Q: With CC(C)n1cc(-c2ccc3c(cnn3C)c2)c2ccc(NS(C)(=O)=O)cc21 [Example 107, N-[1-Isopropyl-3-(1-methyl-1H-indazol-5-yl)-1H-indol-6-yl]-methanesulfonamide] as the compound, how does the Ki [1] read?
A: 50 to 100 nM

Q: What about the Ki [2] of the same compound?
A: > 1000 nM

Q: How did the Ki [1] turn out when CC(C)n1cc(-c2ccc3sccc3c2)c2ccc(NS(C)(=O)=O)cc21 [Example 95, N-(3-Benzo[b]thiophen-5-yl-1-isopropyl-1H-indol-6-yl)-methanesulfonamide] was run?
A: < 50 nM

Q: And the Ki [2]?
A: 500 to 1000 nM

Q: Which results are given for COc1ccc(-c2cn(C(C)C)c3cc(NS(C)(=O)=O)ccc23)cn1 [Example 88, N-[1-Isopropyl-3-(6-methoxy-pyridin-3-yl)-1H-indol-6-yl]-methanesulfonamide]?
A: Ki [1]: < 50 nM; Ki [2]: > 1000 nM

Q: Which results are given for CC(C)n1cc(-c2ccc(O)cc2)c2ccc(NS(C)(=O)=O)cc21 [Example 93, N-[3-(4-Hydroxy-phenyl)-1-isopropyl-1H-indol-6-yl]-methanesulfonamide]?
A: Ki [1]: < 50 nM; Ki [2]: 100 to 500 nM

Q: With CCOC(=O)c1ccc(-c2cn(C(C)C)c3cc(NS(C)(=O)=O)ccc23)cc1 [Example 74, 4-(1-Isopropyl-6-methanesulfonylamino-1H-indol-3-yl)-benzoic acid ethyl ester] as the compound, how does the Ki [1] read?
A: < 50 nM

Q: What about the Ki [2] of the same compound?
A: 100 to 500 nM

Q: How did the Ki [1] turn out when CC(C)n1cc(-c2ccc(C#N)n2C)c2ccc(NS(C)(=O)=O)cc21 [Example 78, N-[3-(5-Cyano-1-methyl-1H-pyrrol-2-yl)-1-isopropyl-1H-indol-6-yl]-methanesulfonamide] was run?
A: < 50 nM

Q: And the Ki [2]?
A: 100 to 500 nM

Q: Which results are given for CS(=O)(=O)Nc1ccc2c(-c3ccc(C#N)cc3)cn(Cc3ccccc3)c2c1 [Example 72, N-[1-Benzyl-3-(4-cyano-phenyl)-1H-indol-6-yl]-methanesulfonamide]?
A: Ki [1]: < 50 nM; Ki [2]: < 50 nM

Q: Cc1ccc(-c2cn(C(C)C)c3cc(NS(C)(=O)=O)ccc23)cc1F [Example 84, N-[3-(3-Fluoro-4-methyl-phenyl)-1-isopropyl-1H-indol-6-yl]-methanesulfonamide] was tested. Which Ki [1] did it give?
A: < 50 nM

Q: What about the Ki [2] of the same compound?
A: 500 to 1000 nM
